ChEMBL document CHEMBL1127656, “Articulating a pharmacophore driven synthetic strategy: Discovery of a potent substance P antagonist” (Bioorg Med Chem Lett, 1994)

Molecular target: Substance-P receptor (Homo sapiens, UniProt P25103)
Assay: In vitro binding affinity towards human NK-1 receptor in IM-9 cells using [3H]SP of substance P antagonist
Format: cell-based

Sequence of Substance-P receptor (P25103 whole entry): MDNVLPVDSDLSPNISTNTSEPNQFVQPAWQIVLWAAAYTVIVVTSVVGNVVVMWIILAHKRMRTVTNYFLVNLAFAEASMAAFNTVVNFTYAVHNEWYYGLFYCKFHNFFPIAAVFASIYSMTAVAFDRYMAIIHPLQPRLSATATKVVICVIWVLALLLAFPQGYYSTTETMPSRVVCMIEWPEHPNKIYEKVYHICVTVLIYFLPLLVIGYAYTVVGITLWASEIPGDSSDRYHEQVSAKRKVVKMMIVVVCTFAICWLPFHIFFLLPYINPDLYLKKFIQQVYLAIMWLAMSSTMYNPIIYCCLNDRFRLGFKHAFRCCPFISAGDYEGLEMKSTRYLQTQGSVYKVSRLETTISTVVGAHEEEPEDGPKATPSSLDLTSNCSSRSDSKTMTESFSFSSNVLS

## COc1ccccc1CN[C@H]1[C@@H]2CCC[C@@H]2N[C@H]1c1ccccc1 (racemic)
  Ki: 2.4 nM
